Data reported in ChEMBL document CHEMBL1201862, “PubChem BioAssay data set” (2004).
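These data come from cells grown in 96-well plates and exposed to compound for 48 hours at five concentrations. GI50 is the concentration that inhibits growth by half.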 Calls of active or inactive are those of the source. No stated cut-off is given here; in the data, active = GI50 up to about 1.1 µM and inactive = higher.

Tests used:
Assay in all cases: NCI anticancer screen, dose series, 48 h
A549 = system: A549
COLO 205 = system: COLO 205
DMS-273 = system: DMS-273
HL-60 = system: HL-60
KM-20L2 = system: KM-20L2
NCI-H23 = system: NCI-H23
NCI-H522 = system: NCI-H522
NCI/ADR-RES = system: NCI/ADR-RES
OVCAR-4 = system: OVCAR-4
SF-539 = system: SF-539
SK-MEL-2 = system: SK-MEL-2
SNB-78 = system: SNB-78
SW-620 = system: SW-620
786-0 = system: 786-0
CCRF-CEM = system: CCRF-CEM
MDA-MB-435 = system: MDA-MB-435
MDA-N = system: MDA-N
MOLT-4 = system: MOLT-4
PC-3 = system: PC-3
T47D = system: T47D

For Nc1ncnc2c(C3OC(CO)C(O)C3O)n[nH]c12 (stereo not given), the GI50 (A549) was 0.428 µM (active), the GI50 (COLO 205) was 2.42 µM (inactive) and the GI50 (DMS-273) was 0.0826 µM (active). The GI50 (HL-60) was 0.045 µM (active), the GI50 (KM-20L2) was 0.229 µM (active) and the GI50 (NCI-H23) was 1.12 µM (inactive). The GI50 (NCI-H522) was 0.151 µM (active), the GI50 (NCI/ADR-RES) was 0.076 µM (active) and the GI50 (OVCAR-4) was 0.582 µM (active). The GI50 (SF-539) was 0.46 µM (active), the GI50 (SK-MEL-2) was 0.0863 µM (active) and the GI50 (SNB-78) was 0.53 µM (active). The GI50 (SW-620) was 0.106 µM (active).

With COc1ccc2[nH]c3c(C)c4c(c(C)c3c2c1)CN(C)C=C4 the GI50 (786-0) was 0.191 µM (active), the GI50 (A549) was 0.873 µM (active) and the GI50 (CCRF-CEM) was 3.76 µM (inactive). For the same compound, the GI50 (COLO 205) was 1.29 µM (inactive), the GI50 (DMS-273) was 0.75 µM (active) and the GI50 (HL-60) was 22.4 µM (inactive). The GI50 (KM-20L2) was 2.75 µM (inactive), the GI50 (MDA-MB-435) was 21.2 µM (inactive) and the GI50 (MDA-N) was 15 µM (inactive). The GI50 (MOLT-4) was 0.65 µM (active), the GI50 (NCI-H23) was 0.424 µM (active) and the GI50 (NCI-H522) was 1.2 µM (inactive). For the same compound, the GI50 (NCI/ADR-RES) was 91.8 µM (inactive), the GI50 (OVCAR-4) was 3.95 µM (inactive) and the GI50 (PC-3) was 11.5 µM (inactive). The GI50 (SF-539) was 0.366 µM (active), the GI50 (SK-MEL-2) was 2.62 µM (inactive) and the GI50 (SNB-78) was 0.432 µM (active). The GI50 (SW-620) was 1.35 µM (inactive) and the GI50 (T47D) was 2.07 µM (inactive).

COc1ccc(/C=C\c2cc(OC)c(OC)c(OC)c2)c(O)c1O [COMBRETASTATIN A-1] was tested, and the GI50 (786-0) was 0.69 µM (active), the GI50 (A549) was 0.178 µM (active) and the GI50 (CCRF-CEM) was 0.0682 µM (active). For the same compound, the GI50 (COLO 205) was 6.65 µM (inactive), the GI50 (DMS-273) was 0.05 µM (active) and the GI50 (HL-60) was 0.0698 µM (active). For the same compound, the GI50 (KM-20L2) was 8.93 µM (inactive), the GI50 (MDA-MB-435) was < 0.01 µM (active) and the GI50 (MDA-N) was < 0.01 µM (active). The GI50 (MOLT-4) was 0.0785 µM (active), the GI50 (NCI-H522) was 0.0942 µM (active) and the GI50 (OVCAR-4) was 2.2 µM (inactive). For the same compound, the GI50 (PC-3) was < 0.0103 µM (active), the GI50 (SK-MEL-2) was 0.0451 µM (active) and the GI50 (SNB-78) was 0.0953 µM (active). The GI50 (SW-620) was 0.0643 µM (active) and the GI50 (T47D) was > 49.9 µM (inactive).

In the case of COc1cc(OC)c2c(O)cc(CC(C)O)cc2c1 (stereo not given), the GI50 (786-0) is reported as > 100 µM (inactive), the GI50 (A549) is reported as > 100 µM (inactive) and the GI50 (CCRF-CEM) is reported as > 100 µM (inactive). For the same compound, the GI50 (COLO 205) was > 100 µM (inactive), the GI50 (DMS-273) was > 100 µM (inactive) and the GI50 (HL-60) was 78.9 µM (inactive). The GI50 (KM-20L2) was > 100 µM (inactive), the GI50 (MOLT-4) was > 100 µM (inactive) and the GI50 (NCI-H23) was > 100 µM (inactive). For the same compound, the GI50 (NCI-H522) was > 100 µM (inactive), the GI50 (OVCAR-4) was > 100 µM (inactive) and the GI50 (SF-539) was > 100 µM (inactive). For the same compound, the GI50 (SK-MEL-2) was > 100 µM (inactive), the GI50 (SNB-78) was > 100 µM (inactive) and the GI50 (SW-620) was > 100 µM (inactive).
